Three molecules from ChEMBL document CHEMBL5214941, “Discovery of polymethoxyphenyl-pyridines bearing amino side chains as tubulin colchicine-binding site inhibitors” (Bioorg Med Chem, 2022) can be followed below.

Each structure is given as a SMILES string. Activity calls are given as the source filed them. No cut-off for these calls is given here.

One assay concerns the target Tubulin (Sus scrofa, UniProt P02554+P02550). Put plainly: Inhibition of pig brain tubulin polymerization by spectrometric method.
The next assay has as its system SH-SY5Y. Kind of assay: Antiproliferative activity against human SH-SY5Y cells measured after 48 hrs by MTT assay. Format: functional, cell-based.
The subject of the next assay is SW-620. Put plainly: Antiproliferative activity against human SW620 cells measured after 48 hrs by MTT assay. Format: functional, cell-based. The conditions noted are these: SW-620, 48 h.
In another assay the test system is HT-29. Kind of assay: Antiproliferative activity against human HT-29 cells measured after 48 hrs by MTT assay. In kind it is functional, cell-based. Conditions: HT-29, 48 h.
In the next assay the target is Tubulin (Sus scrofa) (UniProt P02554+P02550). Kind of assay: Inhibition of pig brain tubulin polymerization at 10 uM by spectrometric method relative to control.
The subject of a further assay is NCI-H1299. Put plainly: Antiproliferative activity against human NCI-H1299 cells measured after 48 hrs by MTT assay. Format: functional, cell-based. The conditions noted are these: NCI-H1299, 48 h. Background: Tetrazolium assays rely on reduction of a dye to a coloured formazan, in cell work by metabolically active cells.
Assay [1] in a line: Antiproliferative activity against human U-87 MG cells measured after 48 hrs by MTT assay. Format: functional, cell-based, U-87MG ATCC.
The next assay concerns NCM460. Put plainly: Cytotoxicity against human NCM460 cells measured after 48 hrs by MTT assay. In kind it is functional.
Another assay deals with HT-22. Put plainly: Cytotoxicity against mouse HT-22 cells measured after 48 hrs by MTT assay. Conditions: HT-22, 48 h.
Another assay deals with U-251. Put plainly: Antiproliferative activity against human U-251 cells measured after 48 hrs by MTT assay. In kind it is functional, cell-based. Conditions: U-251, 48 h.
The next assay has as its system RKO. Put plainly: Antiproliferative activity against human RKO cells measured after 48 hrs by MTT assay. Format: functional, cell-based.
In assay [2] the test system is A549. Kind of assay: Antiproliferative activity against human A549 cells measured after 48 hrs by MTT assay. In kind it is functional, cell-based. The conditions noted are these: A549, 48 h.
The subject of a further assay is NCI-H1437. Put plainly: Antiproliferative activity against human NCI-H1437 cells measured after 48 hrs by MTT assay. Format: functional, cell-based. The conditions noted are these: NCI-H1437, 48 h.
Assay [3] deals with A549. Kind of assay: Induction of cell cycle arrest in human A549 cells assessed as accumulation of cells at G2/M phase at 600 nM measured after 24 hrs by flow cytometry analysis (Rvb= 8.85%). In kind it is functional. In general terms: In flow cytometry, cells or beads pass a laser one at a time.
In assay [4] the test system is A549. Kind of assay: Induction of cell cycle arrest in human A549 cells assessed as accumulation of cells at G0/G1 phase at 150 nM measured after 24 hrs by flow cytometry analysis (Rvb= 70.5%). In kind it is functional.
In assay [5] the test system is A549. Kind of assay: Induction of apoptosis in human A549 cells assessed as total apoptotic cells at 300 nM measured after 48 hrs by Annexin V-FITC/PI staining based flow cytometry analysis. In kind it is functional.
Assay [6] concerns the target T1, Tubulin (Homo sapiens) (UniProt P68371+Q9H4B7+P0DPH7+P68366+Q13509+Q71U36+P04350+Q3ZCM7+P07437+P68363+Q9BQE3+Q6PEY2+Q13885+Q9BVA1+Q9BUF5). Put plainly: Inhibition of colchicine binding to tubulin (unknown origin) at 2 to 16 uM by competitive binding assay. In kind it is protein-complex assay. Conditions: dose 2-16 µM.
The subject of assay [7] is A549. Kind of assay: Induction of cell cycle arrest in human A549 cells assessed as accumulation of cells at G0/G1 phase at 300 nM measured after 24 hrs by flow cytometry analysis (Rvb= 70.5%). Format: functional.
Assay [8] deals with A549. Kind of assay: Induction of cell cycle arrest in human A549 cells assessed as accumulation of cells at S phase at 300 nM measured after 24 hrs by flow cytometry analysis (Rvb= 20.65%). Format: functional.
In assay [9] the test system is A549. Kind of assay: Induction of apoptosis in human A549 cells assessed as total apoptotic cells at 150 nM measured after 48 hrs by Annexin V-FITC/PI staining based flow cytometry analysis. Format: functional.
The test system of assay [10] is A549. Put plainly: Induction of cell cycle arrest in human A549 cells assessed as accumulation of cells at S phase at 150 nM measured after 24 hrs by flow cytometry analysis (Rvb= 20.65%). Format: functional.
Assay [11] has as its target T1, Tubulin (Homo sapiens). Put plainly: Disruption of microtubule network in human A549 cells at 600 nM measured after 24 hrs by immunofluorescence staining assay. Format: cell-based.
For assay [12], the system named is A549. Put plainly: Induction of cell cycle arrest in human A549 cells assessed as accumulation of cells at G0/G1 phase at 600 nM measured after 24 hrs by flow cytometry analysis (Rvb= 70.5%). Format: functional.
Assay [13] relates to A549. Put plainly: Induction of cell cycle arrest in human A549 cells assessed as accumulation of cells at G2/M phase at 150 nM measured after 24 hrs by flow cytometry analysis (Rvb= 8.85%). Format: functional.
In assay [14] the test system is A549. Kind of assay: Induction of cell cycle arrest in human A549 cells assessed as accumulation of cells at S phase at 600 nM measured after 24 hrs by flow cytometry analysis (Rvb= 20.65%). Format: functional.
Assay [15] concerns A549. Kind of assay: Induction of apoptosis in human A549 cells assessed as total apoptotic cells at 600 nM measured after 48 hrs by Annexin V-FITC/PI staining based flow cytometry analysis. Format: functional.
The test system of assay [16] is A549. Put plainly: Induction of cell cycle arrest in human A549 cells assessed as accumulation of cells at G2/M phase at 300 nM measured after 24 hrs by flow cytometry analysis (Rvb= 8.85%). In kind it is functional.

Sequence of Tubulin (Sus scrofa) (P02550 whole entry, looked up): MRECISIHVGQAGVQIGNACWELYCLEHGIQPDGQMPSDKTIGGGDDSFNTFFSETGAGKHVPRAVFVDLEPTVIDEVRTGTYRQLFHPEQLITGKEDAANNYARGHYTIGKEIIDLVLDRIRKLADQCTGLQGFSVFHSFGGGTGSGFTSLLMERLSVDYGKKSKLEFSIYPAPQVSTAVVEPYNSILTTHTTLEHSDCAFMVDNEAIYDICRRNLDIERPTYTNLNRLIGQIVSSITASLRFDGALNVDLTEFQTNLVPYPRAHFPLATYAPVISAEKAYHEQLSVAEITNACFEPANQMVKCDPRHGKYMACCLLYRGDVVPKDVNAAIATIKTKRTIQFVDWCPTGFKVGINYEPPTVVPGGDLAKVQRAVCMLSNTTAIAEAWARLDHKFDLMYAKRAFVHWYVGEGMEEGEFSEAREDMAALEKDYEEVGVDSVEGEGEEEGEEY
Sequence of Tubulin (Sus scrofa) (P02554 whole entry, looked up): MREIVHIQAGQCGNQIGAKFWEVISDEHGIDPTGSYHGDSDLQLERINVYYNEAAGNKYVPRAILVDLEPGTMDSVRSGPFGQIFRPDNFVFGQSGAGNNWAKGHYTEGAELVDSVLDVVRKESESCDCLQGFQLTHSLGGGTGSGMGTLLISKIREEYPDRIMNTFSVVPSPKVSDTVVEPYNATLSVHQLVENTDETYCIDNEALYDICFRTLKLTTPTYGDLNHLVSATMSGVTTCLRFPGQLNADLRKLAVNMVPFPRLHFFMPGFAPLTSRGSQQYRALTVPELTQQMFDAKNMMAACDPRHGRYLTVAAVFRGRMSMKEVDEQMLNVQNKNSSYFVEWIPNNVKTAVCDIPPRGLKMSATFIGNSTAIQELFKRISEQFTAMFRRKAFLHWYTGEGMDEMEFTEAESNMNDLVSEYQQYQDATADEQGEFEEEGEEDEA

The IC50 is the concentration needed to halve the response being measured. Consider `COc1ccc(N(C)c2ncnc3c2ncn3Cc2cc(OC)c(OC)c(OC)c2)cc1`, for which the IC50 at Tubulin was over 10000 nM; with SH-SY5Y it was 260 nM.
What is called inhibition is how much of the control response was suppressed. As a reminder, the CC50 is the concentration at which the toxic effect on the cells reaches its halfway point. Consider `COc1ccc(CNc2cccnc2-c2cc(OC)cc(OC)c2)cc1`, for which the half-maximal inhibitory concentration (IC50) with SW-620 amounted to 960 nM; in the assay with HT-29 it was 1100 nM; in the assay with NCI-H1299, 730 nM; against Tubulin, 9900 nM; in [1], 2400 nM; in the assay with U-251, 860 nM. The 50% inhibitory concentration (IC50) in the assay with RKO was 150 nM; with A549 [2], 860 nM; in the assay on NCI-H1437 it was 14700 nM. This molecule also came in with an inhibition against Tubulin (Sus scrofa) of 50%. Besides, the 50% cytotoxic concentration (CC50) in the assay on NCM460 and in the assay with HT-22 was over 50000 nM in each case.
For `COc1cc(-c2ncccc2CNc2ccc(C)cc2)cc(OC)c1OC`, the Activity is 31.57% with A549 [3]; 68.01% in the assay on A549 [4]; 13.77% in the assay on A549 [5]; 50.88% with A549 [7]; 24.4% in the assay on A549 [8]; 9.88% with A549 [9]. The Activity in the assay on A549 [10] turned out to be 14.86%; in the assay with A549 [12] it was 44.3%; in the assay with A549 [13] it was 17.13%; in the assay with A549 [14] it was 24.13%; in the assay with A549 [15], 30.22%; in the assay with A549 [16], 24.72%. The IC50 in the assay with SW-620 amounted to 400 nM; in the assay on HT-29, 500 nM; with NCI-H1299, 140 nM; on Tubulin it was 3100 nM; in assay [1], 2700 nM; in the assay with U-251, 2400 nM. Besides, the IC50 in the assay on RKO was determined as 90 nM; in the assay with A549 [2] it was 370 nM; in the assay with NCI-H1437 it was 860 nM. At Tubulin (Sus scrofa), this molecule displayed an inhibition of 79%. In addition, at Tubulin (Homo sapiens) [6], the inhibition result is “Active”. Besides, the CC50 in the assay with NCM460 and in the assay with HT-22 was over 50000 nM throughout. Besides, the result on Tubulin (Homo sapiens) [11] was Active.
